The values below come from patent US8329230B2, “Natural hair care composition, methods for obtaining the same and use thereof” (priority 2004, dated 2012).

“Also recorded” adds a separate entry of the source.

One data set deals with heart rate. The following applies: oral; cited from earlier work.
Data set [1] concerns Cladosporium cladosporioides (Fres.) de Vries. The following applies: cited from earlier work.
For data set [2], the system named is chemotherapy induced alopecia. In words: Chemotherapeutic agent (cyclophosphamide) induced alopecia model, topical extracts. Type of data set: in vivo, rat pups of Sprague-Dawley strain. The method, then: Eight-day old rat pups of Sprague-Dawley strain of either sex, bred in Experimental Animal Facility of R&D Center, The Himalaya Drug Company, were used for the experiment. The animals were maintained at 22±3° C., 50-60% of humidity, 12 hours light and dark cycle.
Screening of Extracts in Chemotherapeutic Agent Induced Alopecia Model:
Three Groups of 8 rat pups are used. Group I served normal control and received saline at a dose of 10 ml/kg i.p. Group II & Group III animals received Cyclophosphamide (CP) at a dose of 50 mg/kg i.p. as a single dose. Test extracts PCPB-1 to PCPB-10, PCPB-1P to PCPB-10P and PCPB-1S to PCPB-10S were applied topically to Group III animals everyday from day one after Cyclophosphamide administration till the end of the study. On the 12th day of post Cyclophosphamide injection, the animals were graded for alopecia as given below.
2+—Moderately severe alopecia with more than 50% hair loss
3+—Severe and total alopecia.

In data set [3] the test system is murine hair epithelial cells. The following applies: Phytother. Res. 15, 331-36, 2001; cited from earlier work.
The test system of another data set is male pattern baldness. The following applies: Phytother. Res. 15, 331-36, 2001; cited from earlier work.

Turning to `Nc1cc(N2CCCCC2)nc(N)[n+]1[O-]` [Minoxidil], the “effect on heart rate” value in the data set with heart rate is reported as “reported to affect heart rate in some patients”.
For `COc1ccc2c(c1)OC1c3ccc(OC(C)=O)cc3OCC21` (single isomer, unassigned; (-)) [(−)-medicarpin acetate], the anti-fungal activity entry in data set [1] was “active”.
As for `O=P1(N(CCCl)CCCl)NCCCO1` (stereo not drawn) [CP, Cyclophosphamide], the “hair growth, stereosome photograph” value in data set [2] (figure legends FIGS. 2, 3) is reported as “scanty hairs”. The “alopecia, appearance of rat pups” value in data set [2] (figure legends FIGS. 5, 6) was “high degree of alopecia”. Further, the “hair follicles, photomicrograph of skin section” value in data set [2] (figure legends FIGS. 8-10) is “degenerating hair follicles with decrease in their numbers; also recorded: degenerating hair follicles with epidermal down growth”. Also, the “alopecia grade, Mean SEM” value in data set [2] (mean ± SEM of 8 rat pups, graded 0 to 3+ on 12th day post CP) worked out at 2.88 ± 0.13.
Consider `Oc1cc(O)c2c(c1)O[C@H](c1ccc(O)c(O)c1)[C@H](O)[C@H]2c1c(O)cc(O)c2c1O[C@H](c1ccc(O)c(O)c1)[C@H](O)C2` [Procyanidin B-2], for which the “growth promoting effect on hair epithelial cells” value in data set [3] is on record as “acts as growth promoting factor”. The “potential as cure for male pattern baldness” value in the data set on male pattern baldness is on record as “showed potential as promising cure”.
For the molecule `COc1ccc2c(c1)O[C@H]1c3ccc(O)cc3OC[C@@H]21` [(−)-medicarpin, (−)-3-hydroxy-9-methoxy ptero carpan], the anti-fungal activity result in data set [1] was “active”.
